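Grown in 96-well plates, cells were treated for 48 hours with each compound at five concentrations. Insufficient inhibition: endpoint recorded as highest concentration tested. GI50 is the concentration that inhibits growth by half. Definition used: TGI = concentration required for complete inhibition of growth.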
Legend:
Test in all cases: NCI tumour cell line growth inhibition, 48 h
SW-620 colon = test system: SW-620 colon
NCI-H226 lung = test system: NCI-H226 lung
MOLT-4 leukemia = test system: MOLT-4 leukemia
OVCAR-4 ovarian = test system: OVCAR-4 ovarian
UACC-257 melanoma = test system: UACC-257 melanoma
HL-60(TB) leukemia = test system: HL-60(TB) leukemia
T-47D breast = test system: T-47D breast
OVCAR-3 ovarian = test system: OVCAR-3 ovarian
SF-295 CNS = test system: SF-295 CNS
U251 CNS = test system: U251 CNS
HCT-116 colon = test system: HCT-116 colon
786-0 renal = test system: 786-0 renal
NCI/ADR-RES ovarian = test system: NCI/ADR-RES ovarian
HCC-2998 colon = test system: HCC-2998 colon
NCI-H23 lung = test system: NCI-H23 lung
SK-MEL-28 melanoma = test system: SK-MEL-28 melanoma
SNB-19 CNS = test system: SNB-19 CNS
IGROV1 ovarian = test system: IGROV1 ovarian
MALME-3M melanoma = test system: MALME-3M melanoma
OVCAR-8 ovarian = test system: OVCAR-8 ovarian
RXF 393 renal = test system: RXF 393 renal
SK-OV-3 ovarian = test system: SK-OV-3 ovarian
ACHN renal = test system: ACHN renal
SK-MEL-2 melanoma = test system: SK-MEL-2 melanoma
MDA-MB-231 breast = test system: MDA-MB-231 breast
NCI-H460 lung = test system: NCI-H460 lung
HOP-62 NSCLC = test system: HOP-62 NSCLC
OVCAR-5 ovarian = test system: OVCAR-5 ovarian
HOP-92 NSCLC = test system: HOP-92 NSCLC
DU-145 prostate = test system: DU-145 prostate
CCRF-CEM leukemia = test system: CCRF-CEM leukemia
HT29 colon = test system: HT29 colon
BT-549 breast = test system: BT-549 breast
MDA-MB-435 = test system: MDA-MB-435
PC-3 prostate = test system: PC-3 prostate
SF-539 CNS = test system: SF-539 CNS
UACC-62 melanoma = test system: UACC-62 melanoma
TK-10 renal = test system: TK-10 renal
A549 NSCLC = test system: A549 NSCLC
M14 melanoma = test system: M14 melanoma
SNB-75 CNS = test system: SNB-75 CNS
SK-MEL-5 melanoma = test system: SK-MEL-5 melanoma
A498 renal = test system: A498 renal
COLO 205 colon = test system: COLO 205 colon
MCF7 breast = test system: MCF7 breast
RPMI-8226 leukemia = test system: RPMI-8226 leukemia
NCI-H522 lung = test system: NCI-H522 lung
UO-31 renal = test system: UO-31 renal
SN12C renal = test system: SN12C renal
SR leukemia = test system: SR leukemia
HS 578T breast = test system: HS 578T breast
EKVX NSCLC = test system: EKVX NSCLC
KM12 colon = test system: KM12 colon
K-562 leukemia = test system: K-562 leukemia
LOX IMVI melanoma = test system: LOX IMVI melanoma
HCT-15 colon = test system: HCT-15 colon
CAKI-1 renal = test system: CAKI-1 renal

CCc1c2c(nc3ccc(OCc4ccc(B(O)O)cc4)cc13)-c1cc3c(c(=O)n1C2)COC(=O)[C@]3(O)CC
GI50 (SW-620 colon): 24.7 nM | TGI (SW-620 colon): > 78000 nM | GI50 (NCI-H226 lung): 18.7 nM | TGI (NCI-H226 lung): 339 nM | GI50 (MOLT-4 leukemia): 10.1 nM | TGI (MOLT-4 leukemia): > 100000 nM | GI50 (OVCAR-4 ovarian): 399 nM | TGI (OVCAR-4 ovarian): 29700 nM | GI50 (UACC-257 melanoma): 94.3 nM | TGI (UACC-257 melanoma): 2060 nM | GI50 (HL-60(TB) leukemia): 35.3 nM | TGI (HL-60(TB) leukemia): > 100000 nM | GI50 (T-47D breast): < 10 nM | TGI (T-47D breast): > 21100 nM | GI50 (OVCAR-3 ovarian): 172 nM | TGI (OVCAR-3 ovarian): 4460 nM | GI50 (SF-295 CNS): < 10 nM | TGI (SF-295 CNS): 7530 nM | GI50 (U251 CNS): < 10 nM | GI50 (HCT-116 colon): 11.8 nM | TGI (HCT-116 colon): 17800 nM | GI50 (786-0 renal): < 17.4 nM | TGI (786-0 renal): 1800 nM | GI50 (NCI/ADR-RES ovarian): 76.6 nM | GI50 (HCC-2998 colon): 398 nM | TGI (HCC-2998 colon): > 66100 nM | GI50 (NCI-H23 lung): < 10 nM | TGI (NCI-H23 lung): 304 nM | GI50 (SK-MEL-28 melanoma): 477 nM | TGI (SK-MEL-28 melanoma): > 100000 nM | GI50 (SNB-19 CNS): < 10 nM | TGI (SNB-19 CNS): > 39600 nM | GI50 (IGROV1 ovarian): 161 nM | TGI (IGROV1 ovarian): > 33700 nM | GI50 (MALME-3M melanoma): 57.6 nM | TGI (MALME-3M melanoma): 1590 nM | GI50 (OVCAR-8 ovarian): 19.5 nM | TGI (OVCAR-8 ovarian): > 32100 nM | GI50 (RXF 393 renal): 23.2 nM | TGI (RXF 393 renal): 142 nM | GI50 (SK-OV-3 ovarian): < 10 nM | TGI (SK-OV-3 ovarian): 347 nM | GI50 (ACHN renal): < 17.9 nM | TGI (ACHN renal): 589 nM | GI50 (SK-MEL-2 melanoma): 630 nM | GI50 (MDA-MB-231 breast): 1370 nM | TGI (MDA-MB-231 breast): > 89500 nM | GI50 (NCI-H460 lung): < 13.4 nM | TGI (NCI-H460 lung): 1390 nM | GI50 (HOP-62 NSCLC): < 10 nM | GI50 (OVCAR-5 ovarian): 253 nM | GI50 (HOP-92 NSCLC): 36.6 nM | TGI (HOP-92 NSCLC): 4360 nM | GI50 (DU-145 prostate): < 15.8 nM | TGI (DU-145 prostate): 6050 nM | GI50 (CCRF-CEM leukemia): < 10 nM | TGI (CCRF-CEM leukemia): > 100000 nM | GI50 (HT29 colon): 286 nM | TGI (HT29 colon): > 37700 nM | GI50 (BT-549 breast): 43.2 nM | TGI (BT-549 breast): > 26500 nM | GI50 (MDA-MB-435): 76 nM | TGI (MDA-MB-435): 3500 nM | GI50 (PC-3 prostate): 164 nM | TGI (PC-3 prostate): > 75500 nM | GI50 (SF-539 CNS): < 11.7 nM | TGI (SF-539 CNS): 155 nM | GI50 (UACC-62 melanoma): < 10 nM | TGI (UACC-62 melanoma): 155 nM | GI50 (TK-10 renal): 226 nM | GI50 (A549 NSCLC): 68.1 nM | TGI (A549 NSCLC): > 32300 nM | GI50 (M14 melanoma): < 15.6 nM | TGI (M14 melanoma): 1660 nM | GI50 (SNB-75 CNS): < 16.7 nM | TGI (SNB-75 CNS): 321 nM | GI50 (SK-MEL-5 melanoma): 24.4 nM | TGI (SK-MEL-5 melanoma): 173 nM | GI50 (A498 renal): 12.8 nM | TGI (A498 renal): 210 nM | GI50 (COLO 205 colon): 85.5 nM | TGI (COLO 205 colon): 8460 nM | GI50 (MCF7 breast): < 10 nM | GI50 (RPMI-8226 leukemia): 184 nM | TGI (RPMI-8226 leukemia): > 100000 nM | GI50 (NCI-H522 lung): < 18.3 nM | GI50 (UO-31 renal): 31 nM | TGI (UO-31 renal): 913 nM | GI50 (SN12C renal): < 13 nM | TGI (SN12C renal): > 100000 nM | GI50 (SR leukemia): < 10 nM | TGI (SR leukemia): > 100000 nM | GI50 (HS 578T breast): 752 nM | TGI (HS 578T breast): > 100000 nM | GI50 (EKVX NSCLC): 614 nM | TGI (EKVX NSCLC): > 64000 nM | GI50 (KM12 colon): 150 nM | TGI (KM12 colon): > 51900 nM | GI50 (K-562 leukemia): 79.2 nM | TGI (K-562 leukemia): > 100000 nM | GI50 (LOX IMVI melanoma): < 10 nM | TGI (LOX IMVI melanoma): 150 nM | GI50 (HCT-15 colon): 353 nM | TGI (HCT-15 colon): > 43000 nM | GI50 (CAKI-1 renal): < 14.3 nM | TGI (CAKI-1 renal): 361 nM

Source: PubChem BioAssay (NCI)
